Test results: patent publication US9199999B2, “Substituted imidazopyrazines” (Bayer Intellectual Property GmbH, priority 2010, dated 2015)
Read-outs that look alike come from different tables or passages of the source.

Legend:
human kinase Mps-1 [1] = biological target: T1, human kinase Mps-1 (Homo sapiens (Human), UniProt P33981); assay: biochemical
human kinase Mps-1 [2] = biological target: T1, human kinase Mps-1; conditions: read-out: Mps-1 IC50; N-terminally GST-tagged human full length recombinant Mps-1; 10 μM ATP; 1 μM biotinylated peptide substrate; 60 min at 22° C.

T1 sequence (P33981 whole entry): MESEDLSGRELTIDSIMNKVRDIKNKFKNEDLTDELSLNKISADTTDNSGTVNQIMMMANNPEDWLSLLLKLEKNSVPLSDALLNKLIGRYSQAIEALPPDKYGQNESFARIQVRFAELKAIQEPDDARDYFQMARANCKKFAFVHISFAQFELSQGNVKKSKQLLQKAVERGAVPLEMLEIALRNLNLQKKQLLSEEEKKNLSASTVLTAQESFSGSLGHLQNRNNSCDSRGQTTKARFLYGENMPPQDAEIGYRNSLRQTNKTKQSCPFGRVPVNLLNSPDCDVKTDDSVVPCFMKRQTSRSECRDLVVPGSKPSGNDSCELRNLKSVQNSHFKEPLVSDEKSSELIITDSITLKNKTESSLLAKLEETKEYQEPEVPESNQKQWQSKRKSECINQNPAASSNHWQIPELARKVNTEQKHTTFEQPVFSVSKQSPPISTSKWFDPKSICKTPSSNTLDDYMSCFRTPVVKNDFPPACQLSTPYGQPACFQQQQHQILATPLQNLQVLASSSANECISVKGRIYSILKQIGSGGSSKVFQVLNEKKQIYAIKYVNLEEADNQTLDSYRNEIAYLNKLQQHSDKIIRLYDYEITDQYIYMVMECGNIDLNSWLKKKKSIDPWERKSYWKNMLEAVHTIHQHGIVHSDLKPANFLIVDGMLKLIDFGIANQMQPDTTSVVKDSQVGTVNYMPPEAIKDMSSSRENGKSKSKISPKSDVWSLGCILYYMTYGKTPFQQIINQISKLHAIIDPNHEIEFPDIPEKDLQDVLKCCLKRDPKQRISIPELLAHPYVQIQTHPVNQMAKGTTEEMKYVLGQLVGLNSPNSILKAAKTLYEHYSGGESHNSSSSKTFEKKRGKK

IC50 (human kinase Mps-1 [1]) [nM]	IC50 (human kinase Mps-1 [2]) [nM]	SMILES
43	–	Cc1cc(-c2cnc3c(NCCC(F)(F)F)nc(C#CCO)cn23)ccc1C(=O)NC1C[C@@H]1F (stereo in doubt) [Example 76, N-[rel(1S,2S)-2-fluorocyclopropyl]-4-{6-(3-hydroxyprop-1-yn-1-yl)-8-[(3,3,3-trifluoropropyl)amino]imidazo[1,2-a]pyrazin-3-yl}-2-methylbenzamide]
230	–	NCCCNc1nc(C#CCO)cn2c(-c3ccc(-c4cnc(C5CC5)[nH]4)cc3)cnc12 [Example 60, 3-{8-[(3-Aminopropyl)amino]-3-[4-(2-cyclopropyl-1H-imidazol-5-yl)phenyl]imidazo[1,2-a]pyrazin-6-yl}prop-2-yn-1-ol]
–	8.4	CC(C)CNc1nc(C#CCO)cn2c(-c3ccc(-c4cnc(C5CC5)[nH]4)cc3)cnc12 [Example 54, 3-{3-[4-(2-Cyclopropyl-1H-imidazol-5-yl)phenyl]-8-(isobutylamino)imidazo[1,2-a]pyrazin-6-yl}prop-2-yn-1-ol]
